Reference: patent US20230278972A1, “SUBSTITUTED HALOALKYL SULFONANILIDE HERBICIDES” (FMC Corporation, priority 2020, published 2023)

Legend:
Format in all cases: in vivo
[1] = system: pigweed (Amaranthus retroflexus); assay: Test A postemergence, pigweed; conditions: Postemergence, 0 to 100 scale (0 no effect, 100 complete control); for Plant response rating, Pigweed: 125 g ai/ha; for Pigweed plant response rating: 500 g ai/ha, visual injury vs untreated controls after approx. 10 days
Outline: (§1)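 After sowing into a sand-amended loam, pots for the preemergence test were treated by spraying directly onto soil. In parallel, seedlings at the one- to two-leaf stage and 2 to 10 cm tall were treated postemergence with the identical surfactant-containing formulation.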

[2] = system: barnyardgrass (Echinochloa crus-galli); assay: Test A postemergence, barnyardgrass; conditions: Postemergence, 0 to 100 scale (0 no effect, 100 complete control); for Plant response rating, Barnyardgrass: 125 g ai/ha; for Barnyardgrass plant response rating: 500 g ai/ha, visual injury vs untreated controls after approx. 10 days
Outline: (§2)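 Greenhouse pot test in a loam–sand blend; compounds delivered in a non-phytotoxic solvent carrying a surfactant, applied either as a directed spray to soil at seeding or over seedlings 2 to 10 cm high with one to two leaves.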

[3] = system: blackgrass (Alopecurus myosuroides); assay: Test A postemergence, blackgrass; conditions: Postemergence, 0 to 100 scale (0 no effect, 100 complete control); for Plant response rating, Blackgrass: 125 g ai/ha; for Blackgrass plant response rating: 500 g ai/ha, visual injury vs untreated controls after approx. 10 days
Outline: as §1

[4] = system: Foxtail, Giant (giant foxtail, Setaria faberi); assay: Test A postemergence, Foxtail, Giant; conditions: Postemergence, 0 to 100 scale (0 no effect, 100 complete control); for Plant response rating, Foxtail, Giant: 125 g ai/ha; for Foxtail, Giant plant response rating: 500 g ai/ha, visual injury vs untreated controls after approx. 10 days
Outline: as §1

[5] = system: ragweed (common ragweed, Ambrosia artemisiifolia); assay: Test A preemergence, ragweed; conditions: Preemergence, 0 to 100 scale (0 no effect, 100 complete control)
Outline: as §1

[6] = system: Foxtail, Giant (giant foxtail, Setaria faberi); assay: Test A preemergence, Foxtail, Giant; conditions: Preemergence, 0 to 100 scale (0 no effect, 100 complete control)
Outline: as §1

[7] = system: galium (catchweed bedstraw, Galium aparine); assay: Test A postemergence, galium; conditions: Postemergence, 0 to 100 scale (0 no effect, 100 complete control); for Plant response rating, Galium: 125 g ai/ha; for Galium plant response rating: 500 g ai/ha, visual injury vs untreated controls after approx. 10 days
Outline: as §2

[8] = system: wheat (Triticum aestivum); assay: Test A postemergence, wheat; conditions: Postemergence, 0 to 100 scale (0 no effect, 100 complete control); for Plant response rating, Wheat: 125 g ai/ha; for Wheat plant response rating: 500 g ai/ha, visual injury vs untreated controls after approx. 10 days
Outline: as §2

[9] = system: Ryegrass, Italian (Italian ryegrass, Lolium multiflorum); assay: Test A postemergence, Ryegrass, Italian; conditions: Postemergence, 0 to 100 scale (0 no effect, 100 complete control); for Plant response rating, Ryegrass, Italian: 125 g ai/ha; for Ryegrass, Italian plant response rating: 500 g ai/ha, visual injury vs untreated controls after approx. 10 days
Outline: as §1

[10] = system: barnyardgrass (Echinochloa crus-galli); assay: Test A preemergence, barnyardgrass; conditions: Preemergence, 0 to 100 scale (0 no effect, 100 complete control)
Outline: as §1

[11] = system: pigweed (Amaranthus retroflexus); assay: Test A preemergence, pigweed; conditions: 0 to 100 scale (0 no effect, 100 complete control)
Outline: as §2

[12] = system: ragweed (common ragweed, Ambrosia artemisiifolia); assay: Test A postemergence, ragweed; conditions: Postemergence, 0 to 100 scale (0 no effect, 100 complete control); for Plant response rating, Ragweed: 125 g ai/ha; for Ragweed plant response rating: 500 g ai/ha, visual injury vs untreated controls after approx. 10 days
Outline: as §1

[13] = system: kochia (Bassia scoparia); assay: Test A preemergence, kochia; conditions: Preemergence, 0 to 100 scale (0 no effect, 100 complete control)
Outline: as §1

[14] = system: corn (Zea mays); assay: Test A postemergence, corn; conditions: Postemergence, 0 to 100 scale (0 no effect, 100 complete control); for Plant response rating, Corn: 125 g ai/ha; for Corn plant response rating: 500 g ai/ha, visual injury vs untreated controls after approx. 10 days
Outline: as §1

[15] = system: Ryegrass, Italian (Italian ryegrass, Lolium multiflorum); assay: Test A preemergence, Ryegrass, Italian; conditions: Preemergence, 0 to 100 scale (0 no effect, 100 complete control)
Outline: as §1

[16] = system: kochia (Bassia scoparia); assay: Test A postemergence, kochia; conditions: Postemergence, 0 to 100 scale (0 no effect, 100 complete control); for Plant response rating, Kochia: 125 g ai/ha; for Kochia plant response rating: 500 g ai/ha, visual injury vs untreated controls after approx. 10 days
Outline: as §1

[17] = 125 g ai/ha, visual injury, approx. 10 days

| Compound | Plant response rating, Pigweed [1] | Pigweed plant response rating [1] | Plant response rating, Barnyardgrass [2] | Barnyardgrass plant response rating [2] | Plant response rating, Blackgrass [3] | Blackgrass plant response rating [3] | Plant response rating, Foxtail, Giant [4] | Foxtail, Giant plant response rating [4] | Plant response rating, Ragweed [5, 17] | Plant response rating, Ragweed ([5]; 500 g ai/ha) | Plant response rating, Foxtail, Giant [6, 17] | Plant response rating, Foxtail, Giant ([6]; 500 g ai/ha) | Plant response rating, Galium [7] | Galium plant response rating [7] | Plant response rating, Wheat [8] | Wheat plant response rating [8] | Plant response rating, Ryegrass, Italian [9] | Ryegrass, Italian plant response rating [9] | Plant response rating, Barnyardgrass [10, 17] | Plant response rating, Barnyardgrass ([10]; 500 g ai/ha) | further results |
| --- | --- | --- | --- | --- | --- | --- | --- | --- | --- | --- | --- | --- | --- | --- | --- | --- | --- | --- | --- | --- | --- |
| Cc1cc(C)c(C2=NOC(C)(C)C2)cc1NS(=O)(=O)C(F)(F)F [Compound 206] | 60 | 70 | 60 | 80 | 50 | 50 | 50 | 60 | 40 | 80 | 80 | 90 | 70 | 80 | 60 | 80 | 50 | 90 | 90 | 90 | Plant response rating, Pigweed [11, 17]: 90; Plant response rating, Pigweed ([11]; 500 g ai/ha): 100; Plant response rating, Ragweed [12]: 60; Ragweed plant response rating [12]: 90; Plant response rating, Kochia [13, 17]: 80; Plant response rating, Kochia ([13]; 500 g ai/ha): 90; Plant response rating, Corn [14]: 0; Corn plant response rating [14]: 70; Plant response rating, Ryegrass, Italian [15, 17]: 80; Plant response rating, Ryegrass, Italian ([15]; 500 g ai/ha): 90; Plant response rating, Kochia [16]: 20; Kochia plant response rating [16]: 70 |
| Cc1cc(C)c(N(S(=O)(=O)C(F)(F)F)S(=O)(=O)C(F)(F)F)cc1C1=NOC2(CCCC2)C1 [Compound 208] | 20 | 50 | 0 | 30 | 0 | 20 | 0 | 40 | 0 | 0 | 90 | 100 | 30 | 70 | 0 | 50 | 0 | 40 | 90 | 90 | Plant response rating, Pigweed [11, 17]: 60; Plant response rating, Pigweed ([11]; 500 g ai/ha): 70; Plant response rating, Ragweed [12]: 20; Ragweed plant response rating [12]: 20; Plant response rating, Kochia [13, 17]: 90; Plant response rating, Kochia ([13]; 500 g ai/ha): 90; Plant response rating, Corn [14]: 0; Corn plant response rating [14]: 20; Plant response rating, Ryegrass, Italian [15, 17]: 70; Plant response rating, Ryegrass, Italian ([15]; 500 g ai/ha): 80; Plant response rating, Kochia [16]: 10; Kochia plant response rating [16]: 30 |
| CCC1(CC)CC(c2cc(NS(=O)(=O)C(F)(F)F)c(C)cc2C)=NO1 [Compound 209] | 30 | 50 | 20 | 70 | 20 | 30 | 0 | 10 | 0 | 60 | 20 | 70 | 70 | 80 | 0 | 0 | 40 | 90 | 40 | 90 | Plant response rating, Pigweed [11, 17]: 0; Plant response rating, Pigweed ([11]; 500 g ai/ha): 50; Plant response rating, Ragweed [12]: 40; Ragweed plant response rating [12]: 60; Plant response rating, Kochia [13, 17]: 0; Plant response rating, Kochia ([13]; 500 g ai/ha): 80; Plant response rating, Corn [14]: 0; Corn plant response rating [14]: 30; Plant response rating, Ryegrass, Italian [15, 17]: 50; Plant response rating, Ryegrass, Italian ([15]; 500 g ai/ha): 90; Plant response rating, Kochia [16]: 20; Kochia plant response rating [16]: 40 |
| Cc1cc(C)c(N(S(=O)(=O)C(F)(F)F)S(=O)(=O)C(F)(F)F)cc1C(=O)N1CCC(F)(F)CC1 [Compound 210] | 60 | 100 | 20 | 90 | 0 | 0 | 0 | 30 | 80 | 90 | 90 | 100 | 80 | 90 | 0 | 60 | 20 | 40 | 90 | 100 | Plant response rating, Pigweed [11, 17]: 100; Plant response rating, Pigweed ([11]; 500 g ai/ha): 100; Plant response rating, Ragweed [12]: 80; Ragweed plant response rating [12]: 90; Plant response rating, Kochia [13, 17]: 30; Plant response rating, Kochia ([13]; 500 g ai/ha): 90; Plant response rating, Corn [14]: 10; Corn plant response rating [14]: 40; Plant response rating, Ryegrass, Italian [15, 17]: 50; Plant response rating, Ryegrass, Italian ([15]; 500 g ai/ha): 100; Plant response rating, Kochia [16]: 50; Kochia plant response rating [16]: 90 |
| Cc1cc(F)c(C(=O)N2CCCCC2)cc1NS(=O)(=O)C(F)(F)F [Compound 211] | 40 | 60 | 0 | 30 | 0 | 0 | 0 | 50 | 30 | 80 | 60 | 90 | 60 | 70 | 0 | 0 | 40 | 30 | 60 | 90 | Plant response rating, Pigweed [11, 17]: 20; Plant response rating, Pigweed ([11]; 500 g ai/ha): 90; Plant response rating, Ragweed [12]: 30; Ragweed plant response rating [12]: 60; Plant response rating, Kochia [13, 17]: 80; Plant response rating, Kochia ([13]; 500 g ai/ha): 90; Plant response rating, Corn [14]: 0; Corn plant response rating [14]: 0; Plant response rating, Ryegrass, Italian [15, 17]: 50; Plant response rating, Ryegrass, Italian ([15]; 500 g ai/ha): 70; Plant response rating, Kochia [16]: 10; Kochia plant response rating [16]: 50 |
